Data taken from patent US20230128730A1, “OXYGEN IMPERMEABLE PORPHYRIN PHOTOSENSITIZER FILM COMPOSITION FOR APPLICATION TO PLANTS” (SUNCOR ENERGY INC., priority 2020, published 2023).

Legend:
[1] = Method A: photostability in a non-hydrated state (solid state), dried films under LED light; type: physicochemical; conditions: various tetrapyrroles; PVOH 89 kDa, >99% hydrolysis and tannic acid; 72 h simulated sunlight
Experimental: Fifty microlitres of each formulation was pipetted into 12 wells of a 96-well clear-bottom black microplate (Thomas Scientific, Swedesboro, N.J.) and dried into thin films using a dehydrator (Gourmia GFD1680) at a temperature of 45° C. for 3 h. At the beginning of the experiment, the microplate was placed under a Heliospectra RX30 LED light array (Heliospectra, San […], Calif.). The LED array was adjusted such that the microplates received on average 1300 μmol/m^2/s of light intensity. The microplate was tightly covered with aluminum foil and at select intervals peeled back to irradiate films with either 0 h, 24 h, 48 h or 72 h of light. […] An absorbance spectral scan was conducted on the microplate (350-750 nm) using a plate reader (Spectramax M2E, Molecular Devices, San Jose, Calif.) and the peak intensity was monitored at 24 h, 48 h and/or 72 h timepoints and compared with the corresponding 0 h timepoint to determine the degree of photodegradation. The % photosensitizer remaining after irradiation was calculated using the following equation: [formula] where Abst is the absorbance peak of the sample receiving t hours of light exposure; Abs0 is the absorbance peak of the sample receiving no light exposure. All data is expressed as mean±standard deviation.

[2] = Method B: photostability in solution (liquid state) under LED light; type: physicochemical; conditions: various tetrapyrroles; PVOH 89 kDa, >99% hydrolysis and tannic acid; 6 h simulated light
Experimental: Fifty microlitres of each formulation was pipetted into 12 wells of a 96-well clear-bottom black microplate (Thomas Scientific, Swedesboro, N.J.), followed by the addition of 50 μL dH2O. The sample was sealed with a microplate clear adhesive film to minimize water evaporation. At the beginning of experiment, the microplate was placed under a Heliospectra RX30 LED light array (Heliospectra, San […], Calif.). The LED array was adjusted such that the microplates received on average 1300 μmol/m^2/s of light intensity. […] The % photosensitizer remaining after irradiation was calculated using the following equation: [formula] where Abst is the absorbance peak of the sample receiving t hours of light exposure; Abs0 is the absorbance peak of the sample receiving no light exposure. All data is expressed as mean±standard deviation.

Sclerotinia homoeocarpa [3] = experiment: Agar protocol: control of dollar spot fungus with modified Ce6; type: cell-based; conditions: Agar data, 10 uM
Experimental: Agar protocol: control of dollar spot fungus (Sclerotinia homoeocarpa) with modified Ce6 was assessed. Treatments were amended into Potato Dextrose Agar (PDA) at desired concentrations. Then, a 5 mm diameter plug of a Sclerotinia homoeocarpa isolate (3 isolates total tested) was inoculated into the center of the amended Petri-dish and incubated at 21° C. in the dark for 24 hours. After 24 hours, one set of Petri-dishes (in triplicate) was left in the dark and one set was placed under illumination for the remainder of the experiment (all at 21° C.). Radial growth of the fungus was monitored daily until the growth of S. homoeocarpa on non-amended PDA reaches the edge of the Petri-dish. Illumination was provided by fluorescent lights emitting about 180 μmol/m2/s photosynthetically active radiation (PAR).

Sclerotinia homoeocarpa [4] = experiment: Broth protocol: control of dollar spot fungus with modified chlorins; type: cell-based; conditions: Broth data; for Inhibition, % (Light): light 1 hour, about 1000 μmol/m2/s PAR
Experimental: Broth protocol: control of dollar spot fungus (Sclerotinia homoeocarpa) with modified chlorins was assessed. Treatments were prepared in Phosphate Buffered Saline (PBS) in 24 well plates (in duplicates for light vs. dark incubation) at desired concentrations. Then, a 5 mm diameter plug of a Sclerotinia homoeocarpa isolate (3 isolates total tested) was inoculated into the PBS and incubated at 21° C. in the dark for 2 hours. After 2 hours, one of the 24 well plates (with isolates in triplicate) was left in the dark and one 24 well plate was placed under illumination for 1 hour (all at 21° C.). Following illumination, fungal plugs were removed from PBS, blotted dry on sterile filter paper and transferred to non-amended Potato Dextrose Agar (PDA). Radial growth of the fungus was monitored daily until the growth of S. homoeocarpa reached the edge of the Petri-dish. Illumination was provided by LED lights emitting about 1000 μmol/m2/s photosynthetically active radiation (PAR).

[5] = tested on: Pseudomonas syringae pv. tabaci; experiment: In vitro photodynamic inactivation of Pseudomonas syringae pv. tabaci with modified Ce6; type: cell-based
Experimental: Experiments were conducted to evaluate control of the gram-negative bacterial plant pathogen Pseudomonas syringae pv. tabaci with modified Ce6. Treatments were prepared in Phosphate Buffered Saline (PBS) in 96 well plates at desired concentrations. A bacterial suspension was inoculated into the PBS and incubated at 28° C. in the dark for 30 min. After 30 min, the 96 well plate was placed under illumination for 1 hour (at 21° C.). A separate plate prepared at the same time was kept in the dark without illumination and served as dark control. Following illumination, bacterial suspensions were serially diluted and 10 μL of each dilution was spread uniformly on Tryptic Soy Agar (TSA) plates and placed in the dark in an incubator at 28° C. for 48 hours. After 48 hours, bacterial colonies were counted and results were log transformed (log colony forming units (CFU)/mL). The relative inactivation was determined by taking the difference between log CFU(PBS control) and log CFU (treatments). Sample Illumination was provided by LED lights (Heliospectra RX30) emitting about 1000 μmol/m^2/s photosynthetically active radiation (PAR).

[6] = tested on: Kentucky bluegrass (Poa pratensis); experiment: Kentucky bluegrass tolerance to salt stress (turf quality); type: in vivo; conditions: 170 mM NaCl, 2 salt applications; scale of 1-9 (1=dead, 9=healthy); untreated control 5
Experimental: Kentucky bluegrass (Poa pratensis) was grown under greenhouse conditions for ˜3 weeks. After 3 weeks, plants were sprayed with formulations and allowed to sit for 24 hours, after which the pots were placed in a 170 mM NaCl solution until the soil was saturated. The salt application was repeated again 7 days later for a total of 2 salt applications. Salinity stress was evaluated based on a turf quality scale of 1-9; where 1=dead, brown turf; 6=minimally acceptable turf quality (based on standards for golf courses or sports fields); and 9=dense, dark green turf (healthy). Data are average of 5 replicates.

[7] = tested on: Pseudomonas syringae pv. tabaci; experiment: In vitro effect of PP IX and modified PP IX on Pseudomonas syringae pv. tabaci, with and without chelating agent; type: cell-based; conditions: 10 μM; illumination 1 hour, about 1000 μmol/m^2/s PAR; PBS control 8.7
Experimental: In this example, control of the gram-negative bacterial plant pathogen Pseudomonas syringae pv. tabaci with PP IX and modified PP IX was assessed, with and without chelating agents. Treatments were prepared in Phosphate Buffered Saline (PBS) in 96 well plates at desired concentrations. A bacterial suspension was inoculated into the PBS and incubated at 28° C. in the dark for 30 minutes. After 30 minutes, the 96 well plate was placed under illumination for 1 hour (at 21° C.). Following illumination, bacterial suspensions were serially diluted and 10 μL of each dilution is spread uniformly on Tryptic Soy Agar (TSA) plates and placed in the dark in an incubator at 28° C. for 48 hours. After 48 hours, bacterial colonies were counted, and the results were log transformed (log colony forming units (CFU)/mL). The relative inactivation was determined by taking the difference between log CFU(PBS control) and log CFU(treatments). Sample Illumination was provided by LED lights (Heliospectra RX30) emitting about 1000 μmol/m^2/s photosynthetically active radiation (PAR).

| Substance | % photosensitizer remaining at 72 h (solid state) [1] | % photosensitizer remaining at 6 h (liquid state) [2] | Inhibition, % (Dark) (Sclerotinia homoeocarpa [3]; dark) | Inhibition, % (Light) (Sclerotinia homoeocarpa [3]; light about 180 μmol/m2/s PAR) | Inhibition, % (Dark) (Sclerotinia homoeocarpa [4]; 10 uM) | Inhibition, % (Light) (Sclerotinia homoeocarpa [4]; 10 uM) | Inhibition, % (Dark) (Sclerotinia homoeocarpa [4]; 100 uM) | Inhibition, % (Light) (Sclerotinia homoeocarpa [4]; 100 uM) | Relative Inactivation (log[CFUcontrol mL^−1] − log[CFUtreatment mL^−1]), Dark ([5]; dark control plate) | Relative Inactivation (log[CFUcontrol mL^−1] − log[CFUtreatment mL^−1]), Light ([5]; illumination 1 hour, about 1000 μmol/m^2/s PAR, where no colonies remained value set to 1 CFU/mL) | Turf Quality [6] | log CFU/ml [7] |
| --- | --- | --- | --- | --- | --- | --- | --- | --- | --- | --- | --- | --- |
| Chlorin e6, trisodium salt [Ce6Na3, reference compound] | 84.2 ± 7^ % | 19.4 ± 0.5% | 26% | 74% | −4% | 53% | 16% | 66% | −0.03 ± 0.13 log CFU mL^−1 | 0.39 ± 0.29 log CFU mL^−1 | 6 |  |
| Protoporphyrin IX disodium salt [PP IX disodium salt] |  |  |  |  |  |  |  |  |  |  |  | 7.4 log CFU/ml |
